Source: BigSolDB 2.1

O=C(O)c1ccc(C(=O)O)cc1
Conditions | solubility (mole fraction)
in 1,2-diethoxyethane, 293.15 K | 0.000214
in 1,2-diethoxyethane, 303.3 K | 0.000251
in 1,2-diethoxyethane, 313.25 K | 0.000294
in 1,2-diethoxyethane, 323.35 K | 0.000344
in 1,2-diethoxyethane, 333.65 K | 0.000403
in 1,2-diethoxyethane, 343.55 K | 0.000477
in THF, 293.15 K | 0.000882
in THF, 303.15 K | 0.000995
in THF, 313.45 K | 0.00115
in THF, 323.35 K | 0.0014
in THF, 329.35 K | 0.00164
in acetophenone, 303.15 K | 1.07e-05
in acetophenone, 313.15 K | 1.87e-05
in acetophenone, 323.15 K | 3.47e-05
in acetophenone, 332.85 K | 6.17e-05
in acetophenone, 343.3 K | 0.000116
in cyclohexanone, 293.15 K | 0.000167
in cyclohexanone, 303.15 K | 0.000183
in cyclohexanone, 313.15 K | 0.000231
in cyclohexanone, 323.3 K | 0.000302
in cyclohexanone, 333.4 K | 0.000385
in cyclohexanone, 343.85 K | 0.00053

O=C(O)c1cccc(C(=O)O)c1
Conditions | solubility (mole fraction)
in 1,2-diethoxyethane, 293.3 K | 0.00265
in 1,2-diethoxyethane, 303.15 K | 0.00293
in 1,2-diethoxyethane, 313.15 K | 0.0033
in 1,2-diethoxyethane, 322.75 K | 0.00376
in 1,2-diethoxyethane, 332.65 K | 0.00433
in 1,2-diethoxyethane, 342.45 K | 0.00502
in THF, 293.35 K | 0.0141
in THF, 303.15 K | 0.0154
in THF, 313.45 K | 0.0169
in THF, 322.85 K | 0.0185
in THF, 328.75 K | 0.0196
in acetophenone, 303.15 K | 0.000725
in acetophenone, 313.15 K | 0.000858
in acetophenone, 323.05 K | 0.00105
in acetophenone, 332.95 K | 0.00135
in acetophenone, 342.95 K | 0.00175
in cyclohexanone, 293.35 K | 0.00239
in cyclohexanone, 303.15 K | 0.00302
in cyclohexanone, 313.15 K | 0.00385
in cyclohexanone, 322.75 K | 0.00469
in cyclohexanone, 332.75 K | 0.00571
in cyclohexanone, 342.85 K | 0.00697

O=C(O)c1ccccc1C(=O)O
Conditions | solubility (mole fraction)
in 1,2-diethoxyethane, 293.15 K | 0.0154
in 1,2-diethoxyethane, 303.25 K | 0.0177
in 1,2-diethoxyethane, 313.2 K | 0.02
in 1,2-diethoxyethane, 323.05 K | 0.0228
in 1,2-diethoxyethane, 333.15 K | 0.0261
in 1,2-diethoxyethane, 343.05 K | 0.0302
in THF, 293.25 K | 0.0697
in THF, 303.15 K | 0.0754
in THF, 313.45 K | 0.0826
in THF, 323.15 K | 0.0899
in THF, 329.05 K | 0.0949
in acetophenone, 303.35 K | 0.0056
in acetophenone, 313.35 K | 0.00724
in acetophenone, 323.35 K | 0.00933
in acetophenone, 332.95 K | 0.0119
in acetophenone, 343.55 K | 0.0152
in cyclohexanone, 293.15 K | 0.0176
in cyclohexanone, 303.15 K | 0.0212
in cyclohexanone, 313.15 K | 0.0257
in cyclohexanone, 323.15 K | 0.031
in cyclohexanone, 333.15 K | 0.037
in cyclohexanone, 343.4 K | 0.0459
